Patent publication US20250092039A1, “GLUTARIMIDE-CONTAINING PAN-KRAS-MUTANT DEGRADER COMPOUNDS AND USES THEREOF” (Tiger Biotherapeutics Inc., priority 2022, published 2025)

Assays:
[1] = target: KRAS-G12V/RAF1 (Homo sapiens (Human), UniProt P01116, G12V); assay: KRAS/RAF1 binding inhibition assay (AlphaScreen)
In short: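 IC50 comes from variable-slope nonlinear fits of % inhibition (relative to DMSO) against inhibitor concentration. The AlphaScreen signal tracks the interaction of GppNHp-bound KRAS G12V with the RAF1 RBD after 60 min at 4° C with compound in 2% DMSO final.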

[2] = system: SW620 cells; assay: 3D cell growth inhibition of SW620 cells carrying endogenous KRAS G12V mutation (CellTiter-Glo 3D, GI50); type: cell-based; conditions: Homo sapiens, SW-620, 144 h; SW620 cells, 6 days; read-out: SW620 3D cell growth GI50
In short: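 […], compound exposure lasted 6 days at 37° C, added the day after plating from DMSO stocks over a concentration range. Cells: SW620, KRAS G12V, 3D culture.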

[3] = target: KRAS G12V (Homo sapiens (Human), UniProt P01116, G12V); assay: KRAS G12V degradation in SW620 cells (Western blot, DC50); type: cell-based; conditions: 24 hours
Chain of KRAS G12V (P01116-2 other isoform, or with tags, fused parts or gaps G12V): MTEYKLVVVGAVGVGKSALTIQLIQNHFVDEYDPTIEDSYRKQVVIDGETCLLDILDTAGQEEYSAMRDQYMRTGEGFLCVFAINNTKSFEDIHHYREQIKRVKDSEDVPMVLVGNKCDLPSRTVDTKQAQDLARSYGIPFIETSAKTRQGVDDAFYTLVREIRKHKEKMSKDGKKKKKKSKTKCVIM
In short: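 KRAS levels were quantified by fluorescent Western blot as percent of the DMSO control after 24 h of compound exposure at 37° C in homozygous KRAS G12V SW620 cells. A four-parameter variable-slope fit of the dose-response gave the half-maximal degradation concentration.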

Chain of KRAS-G12V/RAF1 (P01116-2 other isoform, or with tags, fused parts or gaps G12V): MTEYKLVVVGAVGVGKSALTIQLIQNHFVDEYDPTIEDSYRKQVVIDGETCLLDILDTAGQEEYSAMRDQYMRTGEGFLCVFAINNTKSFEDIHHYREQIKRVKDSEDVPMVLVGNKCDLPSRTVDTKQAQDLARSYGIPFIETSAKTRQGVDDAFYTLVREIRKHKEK

| Structure (SMILES) | IC50 [1] [nM] | GI50 [2] [nM] | DC50 [3] [nM] | DC50 ([3]; cell prints a figure, not a class symbol) [nM] |
| --- | --- | --- | --- | --- |
| CCc1c(F)ccc2cc(O)cc(-c3ncc4c(N5C[C@@H]6C[C@H](C5)[C@H](O)C6)nc(OCC5(CN6CCC7(CC6)CC(CN6CCN(c8ccc9c(c8)CN([C@H]8CCC(=O)NC8=O)C9=O)CC6)C7)CC5)nc4c3F)c12 [Compound 90, (S)-3-(5-(4-((7-((1-(((7-(8-ethyl-7-fluoro-3-hydroxynaphthalen-1-yl)-8-fluoro-4-((IR,5R,6R)-6-hydroxy-3-azabicyclo[3.2.1]octan-3-yl)pyrido[4,3-d]pyrimidin-2-yl)oxy)methyl)cyclopropyl)methyl)-7-azaspiro[3.5]nonan-2-yl)methyl)piperazin-1-yl)-1-oxoisoindolin-2-yl)piperidine-2,6-dione] | > 200 | < 10 | 1 to 10 | – |
| CCc1c(F)ccc2cc(O)cc(-c3ncc4c(N5CCOC[C@@](C)(O)C5)nc(OCC5(CN6CCC7(CC6)CC(CN6CCN(c8ccc9c(c8)CN([C@H]8CCC(=O)NC8=O)C9=O)CC6)C7)CC5)nc4c3F)c12 [Compound 105, (S)-3-(5-(4-((7-((1-(((7-(8-ethyl-7-fluoro-3-hydroxynaphthalen-1-yl)-8-fluoro-4-((S)-6-hydroxy-6-methyl-1,4-oxazepan-4-yl)pyrido[4,3-d]pyrimidin-2-yl)oxy)methyl)cyclopropyl)methyl)-7-azaspiro[3.5]nonan-2-yl)methyl)piperazin-1-yl)-1-oxoisoindolin-2-yl)piperidine-2,6-dione] | 20 to 200 | > 100 | > 100 | – |
| CCc1c(F)ccc2cc(O)cc(-c3ncc4c(N5CCCn6nc(C(=O)N(C)C)c(Cl)c6C5)nc(OCC5(CN6CCC(CN7CCN(c8ccc9c(c8)CN([C@H]8CCC(=O)NC8=O)C9=O)CC7)CC6)CC5)nc4c3F)c12 [Compound 108, (S)-3-chloro-5-(2-((1-((4-((4-(2-(2,6-dioxopiperidin-3-yl)-1-oxoisoindolin-5-yl)piperazin-1-yl)methyl)piperidin-1-yl)methyl)cyclopropyl)methoxy)-7-(8-ethyl-7-fluoro-3-hydroxynaphthalen-1-yl)-8-fluoropyrido[4,3-d]pyrimidin-4-yl)-N,N-dimethyl-5,6,7,8-tetrahydro-4H-pyrazolo[1,5-a][1,4]diazepine-2-carboxamide] | > 200 | < 10 | 1 to 10 | – |
| CCc1cccc2cc(O)cc(-c3ncc4c(N5CCCOCC5)nc(OCC5(CN6CCC7(CC6)CC(CN6CCN(c8ccc9c(c8)CN([C@H]8CCC(=O)NC8=O)C9=O)CC6)C7)CC5)nc4c3F)c12 [Compound 109, (S)-3-(5-(4-((7-((1-(((7-(8-ethyl-3-hydroxynaphthalen-1-yl)-8-fluoro-4-(1,4-oxazepan-4-yl)pyrido[4,3-d]pyrimidin-2-yl)oxy)methyl)cyclopropyl)methyl)-7-azaspiro[3.5]nonan-2-yl)methyl)piperazin-1-yl)-1-oxoisoindolin-2-yl)piperidine-2,6-dione] | > 200 | > 100 | > 100 | – |
| CCc1cccc2cc(O)cc(-c3ncc4c(N5CCCOCC5)nc(OCC5(CN6CCC(CN7CCN(c8ccc9c(c8)CN([C@H]8CCC(=O)NC8=O)C9=O)CC7)CC6)CC5)nc4c3F)c12 [Compound 110, (S)-3-(5-(4-((1-((1-(((7-(8-ethyl-3-hydroxynaphthalen-1-yl)-8-fluoro-4-(1,4-oxazepan-4-yl)pyrido[4,3-d]pyrimidin-2-yl)oxy)methyl)cyclopropyl)methyl)piperidin-4-yl)methyl)piperazin-1-yl)-1-oxoisoindolin-2-yl)piperidine-2,6-dione] | > 200 | > 100 | > 100 | – |
| CCc1c(F)ccc2cc(O)cc(-c3ncc4c(N5CCC(O)CC5)nc(OCC5(CN6CCC7(CC6)CC(CN6CCN(c8ccc9c(c8)CN([C@H]8CCC(=O)NC8=O)C9=O)CC6)C7)CC5)nc4c3F)c12 [Compound 114, (S)-3-(5-(4-((7-((1-(((7-(8-ethyl-7-fluoro-3-hydroxynaphthalen-1-yl)-8-fluoro-4-(4-hydroxypiperidin-1-yl)pyrido[4,3-d]pyrimidin-2-yl)oxy)methyl)cyclopropyl)methyl)-7-azaspiro[3.5]nonan-2-yl)methyl)piperazin-1-yl)-1-oxoisoindolin-2-yl)piperidine-2,6-dione] | > 200 | > 100 | > 100 | – |
| CCc1c(F)ccc2cc(O)cc(-c3ncc4c(N5CCC[C@@H](O)CC5)nc(OCC5(CN6CCC7(CC6)CC(CN6CCN(c8ccc9c(c8)CN([C@H]8CCC(=O)NC8=O)C9=O)CC6)C7)CC5)nc4c3F)c12 [Compound 116, (S)-3-(5-(4-((7-((1-(((7-(8-ethyl-7-fluoro-3-hydroxynaphthalen-1-yl)-8-fluoro-4-((R)-4-hydroxyazepan-1-yl)pyrido[4,3-d]pyrimidin-2-yl)oxy)methyl)cyclopropyl)methyl)-7-azaspiro[3.5]nonan-2-yl)methyl)piperazin-1-yl)-1-oxoisoindolin-2-yl)piperidine-2,6-dione] | > 200 | > 100 | 1 to 10 | – |

Continued, values first:

| IC50 [1] [nM] | GI50 [2] [nM] | DC50 [3] [nM] | DC50 ([3]; cell prints a figure, not a class symbol) [nM] | Structure (SMILES) |
| --- | --- | --- | --- | --- |
| 20 to 200 | < 10 | 1 to 10 | – | CCc1c(F)ccc2cc(O)cc(-c3ncc4c(N5CCOCC(C)(O)C5)nc(OCC5(CN6CCC(CN7CCN(c8ccc9c(c8)CN([C@H]8CCC(=O)NC8=O)C9=O)CC7)CC6)CC5)nc4c3F)c12 (stereo partly drawn) [Compound 92, (3S)-3-(5-(4-((1-((1-(((7-(8-ethyl-7-fluoro-3-hydroxynaphthalen-1-yl)-8-fluoro-4-(6-hydroxy-6-methyl-1,4-oxazepan-4-yl)pyrido[4,3-d]pyrimidin-2-yl)oxy)methyl)cyclopropyl)methyl)piperidin-4-yl)methyl)piperazin-1-yl)-1-oxoisoindolin-2-yl)piperidine-2,6-dione] |
| 20 to 200 | < 10 | – | 2 | CCc1c(F)ccc2cc(O)cc(-c3ncc4c(N5CCOC[C@@](C)(O)C5)nc(OCC5(CN6CCC(CN7CCN(c8ccc9c(c8)CN([C@H]8CCC(=O)NC8=O)C9=O)CC7)CC6)CC5)nc4c3F)c12 [Compound 104, (3S)-3-[5-[4-[[1-[[1-[[7-(8-ethyl-7-fluoro-3-hydroxy-1-naphthyl)-8-fluoro-4-[(6S)-6-hydroxy-6-methyl-1,4-oxazepan-4-yl]pyrido[4,3-d]pyrimidin-2-yl]oxymethyl]cyclopropyl]methyl]-4-piperidyl]methyl]piperazin-1-yl]-1-oxo-isoindolin-2-yl]piperidine-2,6-dione] |
| > 200 | > 100 | > 100 | – | CCc1c(F)ccc2cc(O)cc(-c3ncc4c(N5CCC(O)CC5)nc(OCC5(CN6CCC(CN7CCN(c8ccc9c(c8)CN([C@H]8CCC(=O)NC8=O)C9=O)CC7)CC6)CC5)nc4c3F)c12 [Compound 115, (S)-3-(5-(4-((1-((1-(((7-(8-ethyl-7-fluoro-3-hydroxynaphthalen-1-yl)-8-fluoro-4-(4-hydroxypiperidin-1-yl)pyrido[4,3-d]pyrimidin-2-yl)oxy)methyl)cyclopropyl)methyl)piperidin-4-yl)methyl)piperazin-1-yl)-1-oxoisoindolin-2-yl)piperidine-2,6-dione] |
| > 200 | > 100 | 1 to 10 | – | CCc1c(F)ccc2cc(O)cc(-c3ncc4c(N5CCC[C@@H](O)CC5)nc(OCC5(CN6CCC(CN7CCN(c8ccc9c(c8)CN([C@H]8CCC(=O)NC8=O)C9=O)CC7)CC6)CC5)nc4c3F)c12 [Compound 117, (S)-3-(5-(4-((1-((1-(((7-(8-ethyl-7-fluoro-3-hydroxynaphthalen-1-yl)-8-fluoro-4-((R)-4-hydroxyazepan-1-yl)pyrido[4,3-d]pyrimidin-2-yl)oxy)methyl)cyclopropyl)methyl)piperidin-4-yl)methyl)piperazin-1-yl)-1-oxoisoindolin-2-yl)piperidine-2,6-dione] |
| > 200 | > 100 | > 100 | – | C#Cc1c(F)ccc2cc(N)cc(-c3ncc4c(N5CCC[C@@](C)(O)C5)nc(OCC5(CN6CCC(CN7CCN(c8ccc9c(c8)CN([C@H]8CCC(=O)NC8=O)C9=O)CC7)CC6)CC5)nc4c3F)c12 [Compound 118, (S)-3-(5-(4-((1-((1-(((7-(3-amino-8-ethynyl-7-fluoronaphthalen-1-yl)-8-fluoro-4-((R)-3-hydroxy-3-methylpiperidin-1-yl)pyrido[4,3-d]pyrimidin-2-yl)oxy)methyl)cyclopropyl)methyl)piperidin-4-yl)methyl)piperazin-1-yl)-1-oxoisoindolin-2-yl)piperidine-2,6-dione] |
| > 200 | > 100 | > 100 | – | C#Cc1c(F)ccc2cc(N)cc(-c3ncc4c(N5CCC[C@@](C)(O)C5)nc(OCC5(CN6CCC7(CC6)CC(CN6CCN(c8ccc9c(c8)CN([C@H]8CCC(=O)NC8=O)C9=O)CC6)C7)CC5)nc4c3F)c12 [Compound 119, (S)-3-(5-(4-((7-((1-(((7-(3-amino-8-ethynyl-7-fluoronaphthalen-1-yl)-8-fluoro-4-((R)-3-hydroxy-3-methylpiperidin-1-yl)pyrido[4,3-d]pyrimidin-2-yl)oxy)methyl)cyclopropyl)methyl)-7-azaspiro[3.5]nonan-2-yl)methyl)piperazin-1-yl)-1-oxoisoindolin-2-yl)piperidine-2,6-dione] |
